The results in this text go back to US12161117B2, “Agrochemical combinations” (UPL LTD, priority 2018, dated 2024).

Experiment [1] deals with Fruit and shoot borer. Briefly: Trial of the combination Chlorantraniliprole+Novaluron+Bifenthrin on Fruit and shoot borer in paddy. It is filed as in vivo. The conditions noted are these: solo. As for the experimental part:
Trials were conducted to test the efficacy of the combination of Chlorantraniliprole+Novaluron+Bifenthrin on Fruit and shoot borer in paddy: […]

Experiment [2] has as its system white ears. Briefly: Trial of the combination Chlorantraniliprole+Novaluron+Bifenthrin on white ears in paddy. It counts as in vivo. Particulars: solo. The procedure:
Trials were conducted to test the efficacy of the combination of Chlorantraniliprole+Novaluron+Bifenthrin on white ears in paddy: […]

With `Cc1c(COC(=O)[C@@H]2[C@H](/C=C(\Cl)C(F)(F)F)C2(C)C)cccc1-c1ccccc1` (racemic) [Bifenthrin], the “Percent control Fruit and shoot borer” value was 54.3% in experiment [1] (3 DAA, dose 60 gm ai/ha); 71% in experiment [1] (7 DAA, dose 60 gm ai/ha); 64.3% in experiment [1] (10 DAA, dose 60 gm ai/ha); 58.3% in experiment [1] (14 DAA, dose 60 gm ai/ha); 80% in experiment [2] (3 DAA, dose 60 gm ai/ha); 79% in experiment [2] (7 DAA, dose 60 gm ai/ha). For the same molecule, the “Percent control Fruit and shoot borer” value in experiment [2] (10 DAA, dose 60 gm ai/ha) is listed as 55%; in experiment [2] (14 DAA, dose 60 gm ai/ha) it was 38%.

For the molecule `O=C(NC(=O)c1c(F)cccc1F)Nc1ccc(OC(F)(F)C(F)OC(F)(F)F)c(Cl)c1` (stereo not drawn) [Novaluron], the “Percent control Fruit and shoot borer” value amounted to 64.3% in experiment [1] (3 DAA, dose 100 gm ai/ha); 75% in experiment [1] (7 DAA, dose 100 gm ai/ha); 68.3% in experiment [1] (10 DAA, dose 100 gm ai/ha); 64.3% in experiment [1] (14 DAA, dose 100 gm ai/ha); 5% in experiment [2] (3 DAA, dose 100 gm ai/ha); 6% in experiment [2] (7 DAA, dose 100 gm ai/ha). Besides, the “Percent control Fruit and shoot borer” value in experiment [2] (10 DAA, dose 100 gm ai/ha) was determined as 5.9%; in experiment [2] (14 DAA, dose 100 gm ai/ha), 4.9%.

For `CNC(=O)c1cc(Cl)cc(C)c1NC(=O)c1cc(Br)nn1-c1ncccc1Cl` [Chlorantraniliprole, 3-bromo-4′-chloro-1-(3-chloro-2-pyridyl)-2′-methyl-6′-(methylcarbamoyl)pyrazole-5-carboxanilide], the “Percent control Fruit and shoot borer” value came out at 79.3% in experiment [1] (3 DAA, dose 30 gm ai/ha); 90% in experiment [1] (7 DAA, dose 30 gm ai/ha); 88.3% in experiment [1] (10 DAA, dose 30 gm ai/ha); 78.4% in experiment [1] (14 DAA, dose 30 gm ai/ha); 5% in experiment [2] (3 DAA, dose 30 gm ai/ha); 6% in experiment [2] (7 DAA, dose 30 gm ai/ha). For the same molecule, the “Percent control Fruit and shoot borer” value in experiment [2] (10 DAA, dose 30 gm ai/ha) is given as 5.9%; in experiment [2] (14 DAA, dose 30 gm ai/ha), 4.9%.
